According to ChEMBL document CHEMBL1201862, “PubChem BioAssay data set” (2004):
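Dose response: 5 concentrations. Exposure: 48 h. Format: 96-well plates. Endpoint: linear interpolation; highest concentration if not reached. GI50 = concentration required for 50% inhibition of growth.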 Calls of active or inactive are those of the source. Cut-off read from the data, not from the text of the source: active = GI50 up to about 1.1 µM and inactive = higher.

Experiments:
Test in all cases: inhibition of tumour cell growth, NCI panel, 48 h
DU-145 = tested on: DU-145
PC-3 = tested on: PC-3
T47D = tested on: T47D
Hs-578T = tested on: Hs-578T
HOP-18 = tested on: HOP-18
KM-20L2 = tested on: KM-20L2
M19-MEL = tested on: M19-MEL
XF498 = tested on: XF498

SMILES | GI50 (DU-145) | GI50 (PC-3) | GI50 (T47D) | GI50 (Hs-578T) | GI50 (HOP-18) | GI50 (KM-20L2) | GI50 (M19-MEL) | GI50 (XF498)
CC(C)c1nccn1Cc1ccc(Cl)cc1Cl | 14.8 µM (inactive) | 46.5 µM (inactive) | – | – | – | – | – | –
C=C(Br)CN(C)CC(=C)Br | > 100 µM (inactive) | > 100 µM (inactive) | > 100 µM (inactive) | > 100 µM (inactive) | – | – | – | –
Cc1cccc(NC(=S)N/N=C2\C(=O)Nc3ccccc32)c1 | 14.1 µM (inactive) | 68.4 µM (inactive) | > 100 µM (inactive) | > 100 µM (inactive) | – | – | – | –
CC/C=C(\C(=C/CC)[N+](=O)[O-])[N+](=O)[O-] | 21.3 µM (inactive) | 33.1 µM (inactive) | 28.4 µM (inactive) | – | – | – | – | –
CC1OC(=O)C(O)=C1O (configuration not stated) | – | – | – | – | > 100 µM (inactive) | > 100 µM (inactive) | > 100 µM (inactive) | > 100 µM (inactive)
O=C(Nc1nc2c(=O)[nH]cnc2s1)c1ccccc1 | 73.1 µM (inactive) | > 100 µM (inactive) | – | 61.5 µM (inactive) | – | – | – | –
Cc1ccc(S(=O)(=O)N(c2ccccc2F)C2CCCCC2O)cc1 (configuration not stated) | 24.9 µM (inactive) | 35.4 µM (inactive) | – | 33 µM (inactive) | – | – | – | –
O=C1OC(c2ccccc2Br)=N/C1=C/c1ccccc1 | > 100 µM (inactive) | > 100 µM (inactive) | > 100 µM (inactive) | 31.3 µM (inactive) | – | – | – | –
Cc1cc(N(CCC#N)CCC#N)ccc1/N=N/c1cc(Cl)ccc1Cl | – | – | – | – | 10.2 µM (inactive) | – | 13.7 µM (inactive) | –
COC(=O)C1(F)C(=O)NC(=O)NC1O (configuration not stated) | > 100 µM (inactive) | 50.8 µM (inactive) | > 100 µM (inactive) | > 100 µM (inactive) | – | – | – | –
Cc1ccc2oc(=O)c(-c3ccccc3)nc2c1 | – | – | – | – | 34.2 µM (inactive) | – | 23.1 µM (inactive) | 33.7 µM (inactive)
COc1ccc(C2c3cc4c(cc3OC(N3CCOCC3)C2C)OCO4)cc1OC (configuration not stated) | 9.42 µM (inactive) | 6.43 µM (inactive) | 4.99 µM (inactive) | 3.51 µM (inactive) | – | – | – | –
CC/C=C/C[C@H](O[Si](C)(C)C(C)(C)C)[C@H]1C[C@H]2O[C@H]([C@@H](O)C#C[Si](C)(C)C)C[C@H]2O1 | 14.7 µM (inactive) | 12.9 µM (inactive) | 7.55 µM (inactive) | 15.3 µM (inactive) | – | – | – | –
CC1(C)C2CCC1(C)[C@H](O)[C@H]2Nc1cc(C(F)(F)F)cc(C(F)(F)F)c1 (some centres not stated) | 3.66 µM (inactive) | 2.47 µM (inactive) | 2.59 µM (inactive) | – | – | – | – | –
N#Cc1ccccc1C(Cl)(Cl)c1cnccn1 | – | – | – | – | > 100 µM (inactive) | – | 54.1 µM (inactive) | 17.9 µM (inactive)
CC1CCC(=O)C(C(O)CC2CC(=O)N(c3ccccc3)C(=O)C2)C1 (configuration not stated) | – | – | – | – | > 100 µM (inactive) | > 100 µM (inactive) | > 100 µM (inactive) | –
CC(CO)(CO)N1C(=O)C2C3C=CC(C3)C2C1=O (configuration not stated) | > 100 µM (inactive) | > 100 µM (inactive) | > 100 µM (inactive) | > 100 µM (inactive) | – | – | – | –
CCn1c(SCC(=O)N/N=C/c2ccccc2)nc2ccccc2c1=O | 48.2 µM (inactive) | 15 µM (inactive) | 21.7 µM (inactive) | 8.41 µM (inactive) | – | – | – | –
COc1ccc2cc(CN3CCC(C4CCN(Cc5ccc6cc(OC)ccc6c5)CC4)CC3)ccc2c1 | 6.21 µM (inactive) | 15.8 µM (inactive) | 1.93 µM (inactive) | 4.61 µM (inactive) | – | – | – | –
CC12CCC3C(CCC4=CC(O)CCC43C=O)C1(O)CCC2c1ccc(=O)oc1 (configuration not stated) | – | – | – | – | 0.0107 µM (active) | 0.00832 µM (active) | 0.0128 µM (active) | –
O=C(NS(=O)(=O)OCC(Cl)(Cl)Cl)SCCC(F)(F)C(F)(F)C(F)(F)C(F)(F)C(F)(F)C(F)(F)F | 46.9 µM (inactive) | 16.5 µM (inactive) | 27.9 µM (inactive) | 19 µM (inactive) | – | – | – | –
COc1cccc(CCn2c(N)c(C#N)c3ccc([N+](=O)[O-])cc3c2=O)c1 | > 46.5 µM (inactive) | > 46.5 µM (inactive) | > 46.5 µM (inactive) | 39.9 µM (inactive) | – | – | – | –
CC1=CCC2CC1C(C(=O)c1c[nH]c3ccccc13)=NC2(C)C (configuration not stated) | > 100 µM (inactive) | 30.8 µM (inactive) | 29.4 µM (inactive) | 41.9 µM (inactive) | – | – | – | –
CSc1nc2c(c(=O)n1C)N=C(c1ccc(Cl)cc1)CC(c1ccccc1)N2 (configuration not stated) | 24.7 µM (inactive) | 24.3 µM (inactive) | – | – | – | – | – | –
CCCc1[nH]c2ccccc2c1-c1c(CCC)[nH]c2ccccc12 | 11.3 µM (inactive) | 5.42 µM (inactive) | – | 6.95 µM (inactive) | – | – | – | –
NCCCCNCCCNC(=O)c1nc(-c2nc(CCN)sc2Cl)sc1Cl | – | – | – | – | – | > 100 µM (inactive) | > 100 µM (inactive) | > 100 µM (inactive)
C[C@]12CC[C@H](OC(=O)Cc3ccc(N(CCCl)CCCl)cc3)CC1=CC[C@@H]1[C@@H]2CC[C@]2(C)C(=O)CC[C@@H]12 | > 100 µM (inactive) | > 100 µM (inactive) | 92.5 µM (inactive) | > 100 µM (inactive) | – | – | – | –

SMILES | GI50 (DU-145) | GI50 (PC-3) | GI50 (T47D) | GI50 (Hs-578T) | GI50 (HOP-18) | GI50 (KM-20L2) | GI50 (M19-MEL) | GI50 (XF498)
CCCc1[nH]c(SCCCCCCCCSc2nc(-c3ccc(F)cc3)c(CCC)[nH]2)nc1-c1ccc(F)cc1 | – | – | – | – | 6.41 µM (inactive) | 16.1 µM (inactive) | 29.9 µM (inactive) | –
Cc1cc(O)nc(NNC(C#N)c2ccc(O)cc2)n1 (configuration not stated) | – | – | – | – | > 100 µM (inactive) | > 100 µM (inactive) | > 100 µM (inactive) | –
COc1cc(C=O)cc(/C=N/c2ccc(S(N)(=O)=O)cc2)c1O | 40.1 µM (inactive) | 2.96 µM (inactive) | 14.3 µM (inactive) | 2.82 µM (inactive) | – | – | – | –
Oc1ccc(-c2nc3ccc4ccccc4c3c3c2CCCC3)c(O)c1 | 35.3 µM (inactive) | 21.6 µM (inactive) | 7.5 µM (inactive) | 24.2 µM (inactive) | – | – | – | –
CC(Cc1ccc2c(c1)OCO2)N(C)C(=O)C1=CCN(C)CC1 (configuration not stated) | > 100 µM (inactive) | > 100 µM (inactive) | > 100 µM (inactive) | > 100 µM (inactive) | – | – | – | –
O=C(/C=C/c1ccccc1)Oc1cccc(O)c1 | 80.7 µM (inactive) | > 100 µM (inactive) | 59.6 µM (inactive) | 25.9 µM (inactive) | – | – | – | –
CCC(Sc1cc(Cl)c(C)cc1S(=O)(=O)Nc1nc(N)nc(N(C)C)n1)C(=O)O (configuration not stated) | > 10 µM (inactive) | > 10 µM (inactive) | > 10 µM (inactive) | > 10 µM (inactive) | – | – | – | –
CC(C)=C[C@@H]1C[C@H](C)[C@H]2CC[C@H](C)[C@H]3C(=O)C(O)=C(C)C(=O)[C@]123 | > 100 µM (inactive) | 27.4 µM (inactive) | – | > 100 µM (inactive) | – | – | – | –
COc1ccc2c(c1)c(=O)c1ccccc1n2/C=C/C(=O)O | – | – | – | – | > 100 µM (inactive) | 26.7 µM (inactive) | – | > 100 µM (inactive)
NC(=O)c1oc([N+](=O)[O-])c(-c2ccccc2)c1-c1ccccc1 | 26.9 µM (inactive) | 15.5 µM (inactive) | 16.3 µM (inactive) | 0.0752 µM (active) | – | – | – | –
O=C(Nc1nc2ncn(CCO)c2c(=O)[nH]1)c1ccccc1 | – | – | – | – | > 100 µM (inactive) | > 100 µM (inactive) | > 100 µM (inactive) | –
CCOC(=O)C(SCCO)C(C(=O)OCC)n1ccc(=O)[nH]c1=O (configuration not stated) | > 100 µM (inactive) | > 64 µM (inactive) | 38.1 µM (inactive) | 36.6 µM (inactive) | – | – | – | –
CCC1C(=O)C[C@H]2[C@@H]3C(O)CC4=CC(=O)CC[C@]4(C)[C@H]3CC[C@]12C (some centres not stated) | > 50 µM (inactive) | > 50 µM (inactive) | > 50 µM (inactive) | > 50 µM (inactive) | – | – | – | –
C[C@]12CCC(=O)C=C1CC[C@@H]1C2CC[C@]2(C)NC(=O)C(C#N)CC12 (some centres not stated) | – | – | – | – | – | 53.6 µM (inactive) | > 100 µM (inactive) | > 100 µM (inactive)
C/C(CC(O)(C(F)(F)F)C(F)(F)F)=N/Nc1ccc([N+](=O)[O-])cc1[N+](=O)[O-] | 2.29 µM (inactive) | 2.78 µM (inactive) | 1.08 µM (active) | 2.81 µM (inactive) | – | – | – | –
CC(=O)N(C)SCC(NC(=O)C(Cc1ccccc1)NC(=O)OCc1ccccc1)C(=O)NC(Cc1ccccc1)C(=O)NC(Cc1cn(C=O)c2ccccc12)C(=O)NC(CCCCNC(=O)OCc1ccccc1)C(=O)NC(C(=O)NC(CSN(C)C(C)=O)C(=O)NO)C(C)OCc1ccccc1 (configuration not stated) | > 100 µM (inactive) | > 100 µM (inactive) | > 100 µM (inactive) | > 100 µM (inactive) | – | – | – | –
CC1OC(n2cc(F)c(=O)[nH]c2=O)CCC1O (configuration not stated) | > 77.6 µM (inactive) | > 100 µM (inactive) | > 100 µM (inactive) | 99.1 µM (inactive) | 67.5 µM (inactive) | 95.1 µM (inactive) | > 100 µM (inactive) | –
COc1ccc2nc3c(C(=O)NCCN(C)C)cccc3cc2c1 | – | – | – | – | > 100 µM (inactive) | 0.562 µM (active) | – | 1.85 µM (inactive)
Cc1nc2ccccc2cc1C[N+]12CN3CN(CN(C3)C1)C2 | 26.2 µM (inactive) | 10.8 µM (inactive) | 18.7 µM (inactive) | 35.6 µM (inactive) | – | – | – | –
CCCCCCOP(=O)(OCCCCCC)C(NC(=O)OCC)(C(F)(F)F)C(F)(F)F | 93.1 µM (inactive) | 33.3 µM (inactive) | 39.5 µM (inactive) | 51.5 µM (inactive) | – | – | – | –
CCOC(=O)N/N=C(/N)Cc1ccccc1 | > 100 µM (inactive) | > 100 µM (inactive) | > 100 µM (inactive) | > 100 µM (inactive) | – | – | – | –
C=C(C)COc1ccc2c(c1)CCC1C2CCC2(C)C(=O)/C(=N/O)CC12 (configuration not stated) | 2.12 µM (inactive) | 2.6 µM (inactive) | 2.2 µM (inactive) | 3.67 µM (inactive) | – | – | – | –
O=C1NC(=O)C(CC2CCCCCCCCCCC2=O)C(=O)N1 (configuration not stated) | > 100 µM (inactive) | > 100 µM (inactive) | – | > 100 µM (inactive) | – | – | – | –
O=C(CC/C(C/C(=N/O)c1ccc(F)cc1)=N/O)N(Cc1ccccc1)Cc1ccccc1 | – | – | – | – | > 100 µM (inactive) | > 100 µM (inactive) | > 100 µM (inactive) | –
COc1ccc(-c2oc3cc(-c4cc5oc(-c6ccc(OC)cc6)c(-c6ccc(OC)cc6)c5cc4OC)c(OC)cc3c2-c2ccc(OC)cc2)cc1 | > 100 µM (inactive) | > 100 µM (inactive) | – | > 100 µM (inactive) | – | – | – | –
O=S(=O)(N/C(=N\O)Nc1ccc(Cl)cc1)c1cc2ccccc2s1 | 20.9 µM (inactive) | 14.5 µM (inactive) | 21.9 µM (inactive) | 18.7 µM (inactive) | – | – | – | –
CC(C)(O)/C=C/C(=O)[C@](C)(O)[C@H]1[C@H](O)C[C@@]2(C)[C@@H]3CC=C4[C@@H](C[C@H](O)C(=O)C4(C)C)[C@]3(C)C(=O)C[C@]12C [CUCURBITACIN D] | – | – | – | – | 0.0748 µM (active) | 0.163 µM (active) | 0.391 µM (active) | –
